The values that follow come from patent EP0186440A2, “Method for producing benzoic acid derivatives” (Takeda Chemical Industries, Ltd., priority 1984, dated 1986).

Read-outs that look alike come from different tables or passages of the source.

Details of series [1]: species or system male mice of Jcl:ICR strain. Particulars: mouse, in vivo, po. As for the experimental part: Five 5-week-old male mice of Jcl:ICR strain, weighing about 30 g each, were used. Compound A, C or E was suspended in a 5% solution of gum arabic and administered orally at the level of 0.2 ml per 10 grams body weight.
For series [2], the system named is synthetic leukotriene D4 (LTD4). The series is described as follows: Bronchoconstriction in guinea pigs due to intravenous LTD4 (Konzett-Rössler method), compound given orally one hour before. Type of series: in vivo, Guinea pigs of the Hartley strain. Particulars: Cavia porcellus, 1 h; 50% inhibitory dose; oral, one hour before LTD4 (10 µg/kg i.v.); inhibition of overflowing volume at maximal response, 30 seconds after LTD4; read-out: ID50(p.o.). As for the experimental part:
Guinea pigs of the Hartley strain, both male and female, with body weights of about 400 g were assigned to groups of 6-10 individuals, and the bronchoconstriction due to LTD4 was measured according to the method of Konzett-Rossler, [Konzett, H. and Rössler, R.: Naunyn-Schmidebergs Archiv für Experimentelle Pathologie und Pharmakologie, 195, 71-74 (1940).] Each guinea pig was fixed in a supine position under urethane anesthesis (1.5 g/kg, intraperitoneal) and the trachea was incised and connected to an artificial respiration apparatus, Rodent Respirator Model 680 [Harvard Apparatus Company, U.S.A.] via a cannula. The branch tube of this tracheal cannula was connected to a Bronchospasm Transducer Model 7020 [Ugobasil Biological Research Apparatus, Italy]. Under the conditions of 4 to 7 ml of air per stroke, 70 strokes per minute and a lung loading pressure of 10 cmH20, the volume of overflowing air was recorded on Rectigraph-8S (San-eiSokki Ltd., Japan) via a transducer. After administration of gallamine triethiodide (1'mg/kg, i.v.), a solution of LTD4 in physiological saline (10 µg/kg) was intravenously administered and the bronchoconstriction elicited thereby was recorded for 15 minutes. The compound was used as suspended in a 5% solution of gum arabic or dissolved in water, and administered orally in a volume of 0.2 ml per 100 c body weight one hour before LTD4 loading. […]

Regarding `CCCc1c(OCCCOc2ccc(C(=O)O)cc2Br)ccc(C(C)=O)c1OC(C)=O` [Compound A, 4-[3-(3-acetoxy-4-acetyl-2-propylphenoxy)propoxy]-3-bromobenzoic acid], in series [1] (500 mg/kg), the “Autopsy after 7 days” value is “did not reveal any abnormalities” and the “symptoms attributable to the compound (acute toxicity)” value (“symptoms attributable to the compound” below) is reported as “no symptoms”. Moreover, in series [2], the ED50 worked out at 47 µmol/kg.

Consider `CCCc1c(OCCCOc2ccc(C(=O)OCCCN(C)C)cc2Br)ccc(C(C)=O)c1O` [E, 3-dimethylaminopropyl 4-[3-(4-acetyl-3-hydroxy-2-propylphenoxy)propoxy]-3-bromobenzoate], for which, in series [1] (2000 mg/kg), the “Autopsy after 7 days” value is listed as “did not reveal any abnormalities” and the “symptoms attributable to the compound” value is listed as “no symptoms”.

For the compound `CCCc1c(OCCCOc2ccc(C(=O)OCCN3CCOCC3)cc2Br)ccc(C(C)=O)c1O` [C, 2-morpholinoethyl 4-[3-(4-acetyl-3-hydroxy-2-propylphenoxy)propoxy]-3-bromobenzoate], in series [1] (2000 mg/kg), the “Autopsy after 7 days” value is given as “did not reveal any abnormalities” and the “symptoms attributable to the compound” value is “no symptoms”.
